From patent US20250129067A1 (Progentos Therapeutics, Inc., priority 2021, published 2025)
Read-outs that look alike come from different tables or passages of the source.

Experiments:
[1] = tested on: Oligodendrocyte progenitor cells (OPCs); assay: In vitro OPC differentiation assay, GPR17 expression (immunocytochemistry); details: 72 hours; for GPR17 Fold Induction (Over Vehicle; 3 μM): 3 μM (10× concentration, final 0.3 μM), fold change over vehicle
Method: To assess the effects of the PDGFRα inhibitors on OPC differentiation, primary OPCs were cultured and exposed to compounds. The number of newly generated oligodendrocytes was assessed by monitoring GPR17 expression. GPR17 is preferentially expressed in actively differentiating oligodendrocytes, allowing them to be distinguished from precursors and more differentiated oligodendrocytes.
Cortices from postnatal day (P) 1-3 rats were dissected and collected into ice cold Hank's Balanced Salt Solution (HBSS). […] Briefly, the cortical cell suspension was centrifuged and washed with buffer (0.5% BSA in PBS) and labeled with Anti-A2B^5 MicroBeads (10 μL beads per 1×10^7 cells) for 15 minutes at 4° C. Following the incubation, cells were washed once with BSA buffer to remove unlabeled beads. A2B^5 positive cells were eluted on the column using the AutoMACS® (Miltenyi, as per manufacturer's protocol using “Possel-s” program). Eluted cells were further washed twice with OPC growth media. Cell counts were performed using Countess III cell counter (ThermoFisher; AMQAX2000) and cells were plated.
The plates were allowed to sit at room temperature for 15 minutes to ensure proper dispersion of cells in a well. The plates were then transferred to the incubator (37° C.; 5% CO2).
Cells were then incubated for 72 hours at 37° C., 5% CO2 before immunostaining for GPR17 marker expression.
Following 72 hours in culture, cells were fixed with 4% paraformaldehyde for 15 minutes and then washed three times in Dulbecco's phosphate buffered saline (DPBS). Prior to immunostaining, cells were treated with a blocking solution (10% normal goat serum containing 1% BSA and 0.1% Triton® X-100 in DPBS) for 15 minutes at room temperature. Primary antibody (anti-GPR17 at 1:2000; Origene TA811615) was applied to cells overnight at 4° C. in incubation solution containing 1% normal goat serum, 1% BSA, and 0.1% Triton X-100 in DPBS. […] The secondary antibody was applied in incubation solution for 2 hours at room temperature, protected from light.
The number of differentiated GPR17+ cells was normalized to the total nuclei count and percent differentiated GPR17+ cells were reported. Statistical analysis was done using one-way ANOVA with multiple comparisons and post-hoc Tukey test in GraphPad Prism (GraphPad Software).

PDGFRα = PDGFRα (Homo sapiens (Human), UniProt P16234); assay: PDGFRα kinase enzyme assay (Promega PDGFRα Kinase Enzyme System, ADP-Glo); format: biochemical; details: 150 uM ATP
Chain of PDGFRα (P16234 24-1089): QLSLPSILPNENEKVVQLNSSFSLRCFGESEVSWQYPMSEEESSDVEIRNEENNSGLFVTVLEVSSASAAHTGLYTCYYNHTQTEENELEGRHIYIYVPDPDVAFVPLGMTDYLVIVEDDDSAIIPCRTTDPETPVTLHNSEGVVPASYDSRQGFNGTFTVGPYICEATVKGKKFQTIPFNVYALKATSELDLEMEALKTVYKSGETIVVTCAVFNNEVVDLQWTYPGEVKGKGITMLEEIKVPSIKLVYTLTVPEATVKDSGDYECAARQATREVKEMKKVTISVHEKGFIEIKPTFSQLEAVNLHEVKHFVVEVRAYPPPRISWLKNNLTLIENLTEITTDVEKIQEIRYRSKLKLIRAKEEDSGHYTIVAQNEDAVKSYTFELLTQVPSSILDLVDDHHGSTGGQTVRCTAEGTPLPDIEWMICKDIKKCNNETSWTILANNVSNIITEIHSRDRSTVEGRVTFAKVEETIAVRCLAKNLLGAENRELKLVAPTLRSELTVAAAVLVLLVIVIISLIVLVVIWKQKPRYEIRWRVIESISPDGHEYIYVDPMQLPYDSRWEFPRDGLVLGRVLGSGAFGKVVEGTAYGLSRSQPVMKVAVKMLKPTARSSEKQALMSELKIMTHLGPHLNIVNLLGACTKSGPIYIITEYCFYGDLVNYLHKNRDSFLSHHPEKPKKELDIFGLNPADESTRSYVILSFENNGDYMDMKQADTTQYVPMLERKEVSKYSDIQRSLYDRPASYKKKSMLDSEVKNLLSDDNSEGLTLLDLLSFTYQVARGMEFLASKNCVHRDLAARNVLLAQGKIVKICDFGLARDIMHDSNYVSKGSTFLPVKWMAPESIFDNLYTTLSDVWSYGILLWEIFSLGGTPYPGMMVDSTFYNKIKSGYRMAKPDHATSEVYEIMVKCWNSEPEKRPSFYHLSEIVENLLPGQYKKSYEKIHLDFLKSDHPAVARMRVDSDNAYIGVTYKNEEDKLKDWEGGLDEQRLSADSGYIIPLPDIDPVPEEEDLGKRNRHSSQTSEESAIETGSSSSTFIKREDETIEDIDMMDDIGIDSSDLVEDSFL
Method: The PDGFRα enzyme assays were conducted per the manufacturer's directions (Promega PDGFRα Kinase Enzyme System and ADP Glo Assay Cat #V8011). […] 20 ng of purified PDGFRα protein was added to the test article. […] ADP-Glo was added to halt the kinase reaction and deplete the remaining ATP. Kinase detection reagent, containing luciferase and luciferin, was used to convert the ADP signal into luminescence. Luminescence was measured using a Molecular Devices Spectramax ID5 and compared to a standard curve to determine kinase activity. IC50s were calculated using Prism 9, Graphpad software.

[2] = 11-point dose response, 10,000 nM to 0.169 nM, BLQ = below limit of quantitation, read-out: IC50 Values on PDGFRα Kinase Inhibition, IC50

Row | SMILES | GPR17 Fold Induction (Over Vehicle; 3 μM) [1] | IC50 (PDGFRα; [2]) [µM] | GPR17 Fold Induction (Over Vehicle; 5 μM) ([1]; primary rat OPCs, 5 μM (10x; final 0.5 μM per method), percent GPR17+ cells as fold change over vehicle) | IC50 (PDGFRα; 20 ng purified PDGFRα, Poly (Glu4Tyr1) substrate, two hours, 11-point dose response, read-out: IC50 Values on PDGFRα Kinase Inhibition) [µM]
1 | Cn1cc(-c2ccn3c(N4CCCN(C(=O)NCc5ccc(C(F)(F)F)cc5)CC4)cnc3n2)cn1 [Compound 120, 4-(7-(1-methyl-1H-pyrazol-4-yl)imidazo[1,2-a]pyrimidin-3-yl)-N-(4-(trifluoromethyl)benzyl)-1,4-diazepane-1-carboxamide] | 0.87 | > 10 | – | –
2 | CC(C)(C)OC(=O)N1CCN(c2cnn3cc(-c4cn(CCCN5CCOCC5)cn4)ccc23)CC1 [Compound 231, tert-butyl 4-(6-(1-(3-morpholinopropyl)-1H-imidazol-4-yl)pyrazolo[1,5-a]pyridin-3-yl)piperazine-1-carboxylate] | 9.34 | 0.395 | – | –
3 | Cn1cc(-c2ccc3c(N4CCN(Cc5csc(Cl)c5)CC4)cnn3c2)cn1 [Compound 200, 3-(4-((5-chlorothiophen-3-yl)methyl)piperazin-1-yl)-6-(1-methyl-1H-pyrazol-4-yl)pyrazolo[1,5-a]pyridine] | 2.20 | 6.96 | – | –
4 | CC(C)(C)OC(=O)N1CCN(c2cnn3cc(C4CCC(O)C4)ccc23)CC1 (centres unmarked) [Compound 215, tert-butyl 4-[6-(3-hydroxycyclopentyl)pyrazolo[1,5-a]pyridin-3-yl]piperazine-1-carboxylate] | 0.76 | > 10 | – | –
5 | COCCn1cncc1-c1ccc2c(N3CCN(C(=O)OC(C)(C)C)CC3)cnn2c1 [Compound 228, tert-butyl 4-(6-(1-(2-methoxyethyl)-1H-imidazol-5-yl)pyrazolo[1,5-a]pyridin-3-yl)piperazine-1-carboxylate] | 1.19 | > 10 | – | –
6 | CN(CCN(C)c1cnc2nc(-c3cnn(C)c3)ccn12)C(=O)OC(C)(C)C [Compound 108, tert-butyl methyl(2-(methyl(7-(1-methyl-1H-pyrazol-4-yl)imidazo[1,2-a]pyrimidin-3-yl)amino)ethyl)carbamate] | 0.54 | > 10 | – | –
7 | COC(=O)[C@@]1(O)C[C@H]2O[C@]1(C)n1c3ccccc3c3c4c(c5c6ccccc6n2c5c31)C(=O)NC4 [Compound K252a, K252a, reference compound] | – | – | 2.53 | 0.427
8 | CN(CCN(C)c1cnc2nc(C3CCOC3)ccn12)C(=O)OC(C)(C)C (centres unmarked) [Compound 100] | 0.83 | > 10 | – | –
9 | COCCn1cc(-c2cc3ncc(N4CCN(C(=O)OC(C)(C)C)CC4)n3cn2)cn1 [Compound 88, tert-butyl 4-(7-(1-(2-methoxyethyl)-1H-pyrazol-4-yl)imidazo[1,2-c]pyrimidin-3-yl)piperazine-1-carboxylate] | 2.90 | 1.6 | – | –
10 | [2H]c1c([2H])c([2H])c(C([2H])([2H])c2cnc(N3CCN(c4cnn5cc(-c6cnn(C)c6)ccc45)CC3)nc2)c([2H])c1[2H] [Compound 82] | 6.50 | 2.51 | – | –
11 | CN(CCCNc1cnn2cc(-c3cnn(C)c3)ccc12)c1ncc(Cc2ccccc2)cn1 [Compound 129, N^1-(5-benzylpyrimidin-2-yl)-N^1-methyl-N^3-(6-(1-methyl-1H-pyrazol-4-yl)pyrazolo[1,5-a]pyridin-3-yl)propane-1,3-diamine] | 2.27 | > 10 | – | –
12 | CC(C)(C)OC(=O)N1CCN(c2cnn3cc(CCCN4CCCC4)ccc23)CC1 [Compound 205, tert-butyl-4-(6-(3-(pyrrolidin-1-yl)propyl)pyrazolo[1,5-a]pyridin-3-yl)piperazine-1-carboxylate] | 1.92 | > 10 | – | –
13 | Cn1cc(-c2ccc3c(C4=CCC(COc5ccccc5)CC4)cnn3c2)cn1 (centres unmarked) [Compound 243, 1-methyl-4-{3-[4-(phenoxymethyl)cyclohex-1-en-1-yl]pyrazolo[1,5-a]pyridin-6-yl}pyrazole] | 0.62 | > 10 | – | –
14 | Cn1cc(-c2ccc3c(N4CCN(c5ncc(Cc6nccs6)cn5)CC4)cnn3c2)cn1 [Compound 182, 2-((2-(4-(6-(1-methyl-1H-pyrazol-4-yl)pyrazolo[1,5-a]pyridin-3-yl)piperazin-1-yl)pyrimidin-5-yl)methyl) thiazole] | 13.16 | 6.99 | – | –
15 | Cn1cc(-c2ccc3c(-c4ccn(-c5ncc(Cc6ccccc6)cn5)c4)cnn3c2)cn1 [Compound 76, 3-[1-(5-benzylpyrimidin-2-yl)-1H-pyrrol-3-yl]-6-(1-methyl-1H-pyrazol-4-yl)pyrazolo[1,5-a]pyridine] | 6.18 | 0.923 | – | –
16 | Cn1cc(-c2ccc3c(N4CCN(C(=O)OC5CCOCC5)CC4)cnn3c2)cn1 [Compound 39, tetrahydro-2H-pyran-4-yl 4-[6-(1-methyl-1H-pyrazol-4-yl)pyrazolo[1,5-a]pyridin-3-yl]piperazine-1-carboxylate] | 1.78 | > 10 | – | –

Row | SMILES | GPR17 Fold Induction (Over Vehicle; 3 μM) [1] | IC50 (PDGFRα; [2]) [µM] | GPR17 Fold Induction (Over Vehicle; 5 μM) ([1]; primary rat OPCs, 5 μM (10x; final 0.5 μM per method), percent GPR17+ cells as fold change over vehicle) | IC50 (PDGFRα; 20 ng purified PDGFRα, Poly (Glu4Tyr1) substrate, two hours, 11-point dose response, read-out: IC50 Values on PDGFRα Kinase Inhibition) [µM]
17 | CC(C)(C)OC(=O)N1CCCN(c2cnc3cc(C4CCOC4)ncn23)CC1 (centres unmarked) [Compound 94, tert-butyl 4-(7-(tetrahydrofuran-3-yl)imidazo[1,2-c]pyrimidin-3-yl)-1,4-diazepane-1-carboxylate] | 1.00 | > 10 | – | –
18 | CC(C)(C)OC(=O)N1CCN(c2cnn3cc(-c4cncn4CCO)ccc23)CC1 [Compound 230, tert-butyl 4-(6-(1-(2-hydroxyethyl)-1H-imidazol-5-yl)pyrazolo[1,5-a]pyridin-3-yl)piperazine-1-carboxylate] | 0.97 | > 10 | – | –
19 | COc1ccc2c(N3CCN(c4ncc(Cc5ccccc5)cn4)CC3)cnn2c1 [Compound 259, 3-[4-(5-benzylpyrimidin-2-yl)piperazin-1-yl]-6-methoxypyrazolo-[1,5-a]pyridine] | 2.69 | > 10 | – | –
20 | CC1CC(COC(=O)N2CCN(c3cnn4cc(-c5cnn(C)c5)ccc34)CC2)C1 (centres unmarked) [Compound 310, (3-methylcyclobutyl)methyl 4-[6-(1-methyl-1H-pyrazol-4-yl)pyrazolo[1,5-a]pyridin-3-yl]piperazine-1-carboxylate] | 4.86 | > 10 | – | –
21 | Cn1cc(-c2ccc3c(N4CCN(c5nsc(Cc6ccccc6)n5)CC4)cnn3c2)cn1 [Compound 154, 5-benzyl-3-(4-(6-(1-methyl-1H-pyrazol-4-yl)pyrazolo[1,5-a]pyridin-3-yl)piperazin-1-yl)-1,2,4-thiadiazole] | 13.45 | 0.697 | – | –
22 | CC(C)(C)OC(=O)N1CCN(c2cnn3cc(-c4cn(CCO)cn4)ccc23)CC1 [Compound 229, tert-butyl 4-(6-(1-(2-hydroxyethyl)-1H-imidazol-4-yl)pyrazolo[1,5-a]pyridin-3-yl)piperazine-1-carboxylate] | 10.61 | 0.363 | – | –
23 | CCCc1ccc2c(N3CCN(C(=O)OC(C)(C)C)CC3)cnn2c1 [Compound 203, tert-butyl 4-(6-propylpyrazolo[1,5-a]pyridin-3-yl)piperazine-1-carboxylate] | 1.35 | > 10 | – | –
24 | Cn1cc(-c2ccc3c(N4CCN(C(=O)OC(C)(C)C)CC4)cnn3n2)cn1 [Compound 45, Tert-butyl 4-[6-(1-methyl-1H-pyrazol-4-yl)pyrazolo[1,5-b]pyridazin-3-yl]piperazine-1-carboxylate] | 1.39 | 1.39 | – | –
25 | CC(C)(C)OC(=O)N1CCN(c2cnn3cc(C4CC4)ccc23)CC1 [Compound 213, tert-butyl 4-{6-cyclopropylpyrazolo[1,5-a]pyridin-3-yl}piperazine-1-carboxylate] | 0.68 | > 10 | – | –
26 | Cn1cc(-c2ccc3c(CCc4ncc(Cc5ccccc5)cn4)cnn3c2)cn1 [Compound 305, 3-(2-(5-benzylpyrimidin-2-yl)ethyl)-6-(1-methyl-1H-pyrazol-4-yl)pyrazolo[1,5-a]pyridine] | 1.15 | – | – | –
27 | Cn1cc(-c2ccn3c(N4CCN(C(=O)OC(C)(C)C)CC4)cnc3n2)cn1 [Compound 87] | 1.43 | – | – | –
28 | Cn1cc(-c2ccn3ncc(N4CCN(c5ncc(Cc6ccccc6)cn5)CC4)c3c2)cn1 [Compound 4, 3-[4-(5-benzylpyrimidin-2-yl)piperazin-1-yl]-5-(1-methyl-1H-pyrazol-4-yl)pyrazolo[1,5a]pyridine] | – | > 10 | – | –
29 | CN(CCCN(C)c1cnn2cc(-c3cnn(C)c3)ccc12)c1ncc(Cc2ccccc2)cn1 [Compound 130] | 1.57 | – | – | –
30 | Cn1cc(-c2ccc3c(N4CCN(C(=O)OCc5ccc(Cl)cc5)CC4)cnn3c2)cn1 [Compound 198, 4-chlorobenzyl 4-(6-(1-methyl-1H-pyrazol-4-yl)pyrazolo[1,5-a]pyridin-3-yl)piperazine-1-carboxylate] | 9.23 | – | – | –
31 | Cn1cc(-c2ccc3c(N4CCN(Cc5ccc(Cl)cc5)CC4)cnn3c2)cn1 [Compound 202, 3-(4-(4-chlorobenzyl)piperazin-1-yl)-6-(1-methyl-1H-pyrazol-4-yl)pyrazolo[1,5-a]pyridine] | 1.94 | – | – | –
